Reference: PubChem BioAssay AID328 (DTP/NCI, 2004)
Several values for one entry are separate records, joined by “and”; a condition that tells them apart may be missing. Equal entries are not always repeated. Toxic doses and inconclusive results are not listed. Rule for the calls: active = survival T/C of 150% or more; inactive = T/C below 125% in these data.

Test system: BDF1 mice, P388 leukemia ip, median survival T/C
Test: NCI In Vivo Anticancer Drug Screen. Data for tumor model P388 Leukemia (intraperitoneal) in B6D2F1 (BDF1) mice
Settings: endpoint: median survival time, higher = longer survival
Method in brief: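 Antitumour effect was judged in vivo: survival in drug-treated mice, normalised to that of vehicle-dosed controls, gives the reported T/C.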

[1] = dose: 50.0 mg/kg/injection, schedule: Q04DX003 (ip), vehicle: saline with Tween-80
[2] = dose: 100.0 mg/kg/injection, schedule: Q04DX003 (ip), vehicle: saline with Tween-80
[3] = dose: 200.0 mg/kg/injection, schedule: Q04DX003 (ip), vehicle: saline with Tween-80
[4] = dose: 400.0 mg/kg/injection, schedule: Q04DX003 (ip), vehicle: saline with Tween-80
[5] = dose: 100.0 mg/kg/injection, schedule: Q01DX009 (ip), vehicle: Klucel (hydroxypropylcellulose) (HPC)
[6] = dose: 200.0 mg/kg/injection, schedule: Q01DX009 (ip), vehicle: Klucel (hydroxypropylcellulose) (HPC)
[7] = dose: 400.0 mg/kg/injection, schedule: Q01DX009 (ip), vehicle: Klucel (hydroxypropylcellulose) (HPC)
[8] = dose: 50.0 mg/kg/injection, schedule: Q01DX009 (ip), vehicle: saline
[9] = dose: 100.0 mg/kg/injection, schedule: Q01DX009 (ip), vehicle: saline
[10] = dose: 50.0 mg/kg/injection, schedule: Q01DX009 (ip), vehicle: saline with Tween-80
[11] = dose: 100.0 mg/kg/injection, schedule: Q01DX009 (ip), vehicle: saline with Tween-80
[12] = dose: 200.0 mg/kg/injection, schedule: Q01DX009 (ip), vehicle: saline with Tween-80
[13] = dose: 200.0 mg/kg/injection, schedule: Q01DX009 (ip), vehicle: saline
[14] = dose: 100.0 mg/kg/injection, schedule: Q04DX003 (ip), vehicle: Klucel (hydroxypropylcellulose) (HPC)
[15] = dose: 200.0 mg/kg/injection, schedule: Q04DX003 (ip), vehicle: Klucel (hydroxypropylcellulose) (HPC)
[16] = dose: 400.0 mg/kg/injection, schedule: Q04DX003 (ip), vehicle: Klucel (hydroxypropylcellulose) (HPC)

Measured: T/C

CC(C)=CC(=O)CC(O)(C(F)(F)F)C(F)(F)Cl (centres undefined)
inactive: dose: 25.0 mg/kg/injection, schedule: Q04DX003 (ip), vehicle: saline with Tween-80 100 % of control | [1] 95 % of control | [2] 109 % of control

CCCCCCCC(=O)Nc1c(C)cc(C)cc1C
inactive: [2] 109 % of control | [3] 100 % of control | [4] 109 % of control

CC(=O)OC(c1ccccc1)C(Cl)(Cl)Cl (centres undefined)
inactive: [2] 100 % of control | [3] 105 % of control | [4] 110 % of control

CC(C)(C)C(=O)CC(=O)C(F)(F)C(F)(F)C(F)(F)F.CC(C)(C)C(=O)CC(=O)C(F)(F)C(F)(F)C(F)(F)F.CC(C)(C)C(=O)CC(=O)C(F)(F)C(F)(F)C(F)(F)F.[Fe]
inactive: [5] 97 % of control | [6] 114 % of control | [7] 97 % of control

CCN(CC)Cc1nccn1-c1ccc([N+](=O)[O-])cc1C(=O)c1ccccc1Cl
inactive: [8] 100 % of control | [9] 118 % of control

CCCn1c2ccccc2c2ccccc21
inactive: [5] 120 % of control | [6] 100 % of control | [7] 95 % of control

O=C1c2ccccc2-c2ccc(Br)c3cccc1c23
inactive: dose: 50.0 mg/kg/injection, schedule: Q01DX009 (ip), vehicle: Klucel (hydroxypropylcellulose) (HPC) 100 % of control | [5] 100 % of control | [6] 100 % of control

COc1cccc(C(O)c2ccncc2C)c1OC (centres undefined)
inactive: dose: 12.5 mg/kg/injection, schedule: Q04DX003 (ip), vehicle: water 103 % of control | dose: 25.0 mg/kg/injection, schedule: Q04DX003 (ip), vehicle: water 97 % of control | dose: 50.0 mg/kg/injection, schedule: Q04DX003 (ip), vehicle: water 102 % of control | dose: 100.0 mg/kg/injection, schedule: Q04DX003 (ip), vehicle: water 112 % of control | dose: 200.0 mg/kg/injection, schedule: Q04DX003 (ip), vehicle: water 97 % of control

CCOC(=O)c1ccc(C=O)[nH]1
inactive: [10] 101 % of control | [11] 99 % of control | [12] 99 % of control

O=S(CC(Cl)c1ccccc1)c1ccccc1 (centres undefined)
inactive: dose: 50.0 mg/kg/injection, schedule: Q01DX009 (ip), vehicle: other 106 % of control | dose: 100.0 mg/kg/injection, schedule: Q01DX009 (ip), vehicle: other 106 % of control | dose: 200.0 mg/kg/injection, schedule: Q01DX009 (ip), vehicle: other 100 % of control

COc1ccc(S(=O)(=O)NCCC#N)cc1NC(C)=O
inactive: dose: 100.0 mg/kg/injection, schedule: Q01DX001 (ip), vehicle: saline sonified 100 % of control | dose: 200.0 mg/kg/injection, schedule: Q01DX001 (ip), vehicle: saline sonified 100 % of control | dose: 400.0 mg/kg/injection, schedule: Q01DX001 (ip), vehicle: saline sonified 100 % of control

CCc1nc2nc(C)cc(C)n2n1
inactive: dose: 12.5 mg/kg/injection, schedule: Q01DX009 (ip), vehicle: saline 91 % of control | dose: 25.0 mg/kg/injection, schedule: Q01DX009 (ip), vehicle: saline 89 % of control | [8] 97 % of control and 120 % of control | [9] 86 % of control and 91 % of control | [13] 104 % of control

C[N+]1(C)N=C([O-])N(c2ccccc2Cl)C1=O
inactive: [2] 100 % of control | [3] 108 % of control | [4] 99 % of control

CC(C)(C)c1cc(C(C)(C)c2ccccc2)cc(Cc2cc(C(C)(C)c3ccccc3)cc(C(C)(C)C)c2O)c1O
inactive: dose: 50.0 mg/kg/injection, schedule: Q01DX009 (ip), vehicle: saline + Tween-80 + alcohol 118 % of control | [10] 96 % of control | dose: 100.0 mg/kg/injection, schedule: Q01DX009 (ip), vehicle: saline + Tween-80 + alcohol 90 % of control | [11] 100 % of control | dose: 200.0 mg/kg/injection, schedule: Q01DX009 (ip), vehicle: saline + Tween-80 + alcohol 115 % of control | [12] 124 % of control | dose: 400.0 mg/kg/injection, schedule: Q01DX009 (ip), vehicle: saline + Tween-80 + alcohol 107 % of control

Nc1c(SSc2ccc3ccccc3c2N)ccc2ccccc12
inactive: dose: 6.25 mg/kg/injection, schedule: Q01DX001 (ip), vehicle: Klucel (hydroxypropylcellulose) (HPC) 109 % of control | dose: 12.5 mg/kg/injection, schedule: Q01DX001 (ip), vehicle: Klucel (hydroxypropylcellulose) (HPC) 109 % of control | dose: 25.0 mg/kg/injection, schedule: Q01DX001 (ip), vehicle: Klucel (hydroxypropylcellulose) (HPC) 116 % of control

CC(=O)c1cccc(N)c1
inactive: dose: 100.0 mg/kg/injection, schedule: Q01DX001 (ip), vehicle: Klucel (hydroxypropylcellulose) (HPC) 104 % of control | [5] 100 % of control | [14] 100 % of control | dose: 200.0 mg/kg/injection, schedule: Q01DX001 (ip), vehicle: Klucel (hydroxypropylcellulose) (HPC) 100 % of control | [6] 91 % of control | [15] 109 % of control | dose: 400.0 mg/kg/injection, schedule: Q01DX001 (ip), vehicle: Klucel (hydroxypropylcellulose) (HPC) 113 % of control | [7] 95 % of control | [16] 109 % of control

CC[N+]1(CC)CCOC(=O)C1
inactive: [9] 92 % of control | [13] 92 % of control | dose: 400.0 mg/kg/injection, schedule: Q01DX009 (ip), vehicle: saline 92 % of control

CC(C)(C)OC(=O)N1Cc2cc3ccccc3nc2C1
inactive: [1] 100 % of control | [2] 118 % of control | [3] 109 % of control

CC1=CCCC(C)C12CCC(C(C)(C)O)C2 (centres undefined)
inactive: [11] 92 % of control | [2] 100 % of control | [12] 92 % of control | [3] 113 % of control | [4] 118 % of control

CCCCn1cnc2c(=S)nc(N)[nH]c21
inactive: dose: 12.5 mg/kg/injection, schedule: Q01DX009 (ip), vehicle: saline with Tween-80 109 % of control | dose: 25.0 mg/kg/injection, schedule: Q01DX009 (ip), vehicle: saline with Tween-80 118 % of control | dose: 33.0 mg/kg/injection, schedule: Q04DX003 (ip), vehicle: saline with Tween-80 100 % of control and 118 % of control | [10] 118 % of control | [1] 108 % of control and 118 % of control | dose: 75.0 mg/kg/injection, schedule: Q04DX003 (ip), vehicle: saline with Tween-80 122 % of control

CC(C)([NH-])CO.CC(C)([NH-])CO.[Cl][Cd][Cl]
inactive: dose: 5.0 mg/kg/injection, schedule: Q01DX009 (ip), vehicle: saline 120 % of control | dose: 6.25 mg/kg/injection, schedule: Q04DX003 (ip), vehicle: saline sonified 104 % of control | dose: 10.0 mg/kg/injection, schedule: Q01DX009 (ip), vehicle: saline 120 % of control | dose: 10.0 mg/kg/injection, schedule: Q04DX003 (ip), vehicle: saline 109 % of control | dose: 12.5 mg/kg/injection, schedule: Q04DX003 (ip), vehicle: saline sonified 108 % of control | dose: 20.0 mg/kg/injection, schedule: Q04DX003 (ip), vehicle: saline 95 % of control

Cc1ccc(NC(=O)c2ccc(Cl)cc2)cc1
inactive: [5] 100 % of control | [14] 108 % of control | [6] 109 % of control | [15] 104 % of control | [7] 90 % of control | [16] 104 % of control

CC(O)CC1CCCCN1O (centres undefined)
inactive: dose: 100.0 mg/kg/injection, schedule: Q04DX002 (ip), vehicle: saline with Tween-80 110 % of control | dose: 200.0 mg/kg/injection, schedule: Q04DX002 (ip), vehicle: saline with Tween-80 101 % of control | dose: 400.0 mg/kg/injection, schedule: Q04DX002 (ip), vehicle: saline with Tween-80 100 % of control

COc1ccc(NC(=O)CCC(=O)O)cc1
inactive: [2] 92 % of control | [3] 88 % of control | [4] 88 % of control

O=[N+]([O-])c1ccc(N2CCN(c3ccc([N+](=O)[O-])c4c3no[n+]4[O-])CC2)c2c1no[n+]2[O-]
inactive: dose: 15.0 mg/kg/injection, schedule: Q04DX003 (ip), vehicle: saline with Tween-80 111 % of control | dose: 30.0 mg/kg/injection, schedule: Q04DX003 (ip), vehicle: saline with Tween-80 106 % of control | dose: 60.0 mg/kg/injection, schedule: Q04DX003 (ip), vehicle: saline with Tween-80 101 % of control
